Test results from patent US8372978B2, “Salts of methyl 2-((R)-(3-chlorophenyl)((R)-1-((S)-2-(methylamino)-3-((R)-tetrahydro-2H-pyran-3-yl)propylcarbamoyl)piperidin-3-yl)methoxy)ethylcarbamate” (Vitae Pharmaceuticals, Inc., priority 2009, dated 2013).
Where a name gives a salt, the structure may show the parent alone.

Experiments:
[1] = Pharmacokinetics after oral administration, plasma by LC/MS/MS, rat; format: in vivo; conditions: for DNAUC0-t / Cmax / AUC(0-t): oral, 10 mg/kg (as salt), 0.5% methylcellulose in water
Description: IV formulations were prepared in 1% DMSO in sterile saline. PO formulations were prepared in 0.5% methylcellulose in water, unless otherwise indicated. After compound administration, plasma samples were obtained through 24 hours post-dosing from each animal using K2EDTA as the anticoagulant. Plasma samples were treated with two volumes of acetonitrile containing an internal standard (ritanserin). Samples were centrifuged at 4,000 rpm for 10 minutes at 25° C. Ten microliters of the supernatant was analyzed using LC/MS/MS. Standard curves are prepared for each species and range from 1.0 to 500 ng/mL The compound of Formula (I) and the internal standard were separated by reverse-phase HPLC using a gradient mobile phase and detected by +APCI monitoring the transitions m/z 525→327 (compound of Formula (I)) and m/z 478→193 (ritanserin).

[2] = Pharmacokinetics after oral administration, plasma by LC/MS/MS, dog; format: in vivo; conditions: for DNAUC0-t / AUC(0-t) / Cmax: oral; for AUC(0-t) / Cmax: plasma
Description: (§1) IV formulations were prepared in 1% DMSO in sterile saline. PO formulations were prepared in 0.5% methylcellulose in water, unless otherwise indicated. After compound administration, plasma samples were obtained through 24 hours post-dosing from each animal using K2EDTA as the anticoagulant. Plasma samples were treated with two volumes of acetonitrile containing an internal standard (ritanserin). Samples were centrifuged at 4,000 rpm for 10 minutes at 25° C. Ten microliters of the supernatant was analyzed using LC/MS/MS.

[3] = Pharmacokinetics after oral administration, plasma by LC/MS/MS, monkey; format: in vivo; conditions: for DNAUC0-t / AUC(0-t) / Cmax: oral, 0.5% methylcellulose in water; for AUC(0-t) / Cmax: plasma
Description: as §1

[4] = Water solubility; format: physicochemical
[5] = Hygroscopicity; format: physicochemical
[6] = 2 mg/kg (as salt), 0.5% methylcellulose in water
[7] = 1 mg/kg (as salt), 2% DMSO in water

**Q.** With CN[C@H](CNC(=O)N1CCC[C@@H]([C@@H](OCCNC(=O)OC)c2cccc(Cl)c2)C1)C[C@H]1CCCOC1 [Mucate, methyl 2-((R)-(3-chlorophenyl)((R)-1-((S)-2-(methylamino)-3-((R)-tetrahydro-2H-pyran-3-yl)propylcarbamoyl)piperidin-3-yl)methoxy)ethylcarbamate mucic acid salt (Form B)] as the compound, how does the “in vivo bioavailability (in words)” value [1] read?
**A.** good in vivo bioavailability

**Q.** And the DNAUC0-t [1]?
**A.** 68 ng·h/mL

**Q.** And the Cmax ([1]; plasma)?
**A.** 238 ng/mL

**Q.** And the AUC(0-t) ([1]; plasma, read-out: AUC0-t)?
**A.** 681 ng·h/mL

**Q.** What about the “in vivo bioavailability (in words)” value [2] of the same compound?
**A.** good in vivo bioavailability

**Q.** What about the DNAUC0-t [2, 6] of the same compound?
**A.** 447 ng·h/mL

**Q.** What about the AUC(0-t) [2, 6] of the same compound?
**A.** 895 ng·h/mL

**Q.** And the Cmax [2, 6]?
**A.** 294 ng/mL

**Q.** And the “in vivo bioavailability (in words)” value [3]?
**A.** good in vivo bioavailability

**Q.** What about the DNAUC0-t ([3]; 3 mg/kg (as salt)) of the same compound?
**A.** 269 ng·h/mL

**Q.** And the AUC(0-t) ([3]; 3 mg/kg (as salt))?
**A.** 807 ng·h/mL

**Q.** What about the Cmax ([3]; 3 mg/kg (as salt)) of the same compound?
**A.** 266 ng/mL

**Q.** And the “water solubility (in words)” value [4]?
**A.** good water solubility

**Q.** What about the solubility ([4]; water, temperature not stated) of the same compound?
**A.** 65 ± 5 mg/mL

**Q.** And the “hygroscopicity (in words)” value [5]?
**A.** sufficiently non-hygroscopic

**Q.** With CN[C@H](CNC(=O)N1CCC[C@@H]([C@@H](OCCNC(=O)OC)c2cccc(Cl)c2)C1)C[C@H]1CCCOC1.O=C(O)/C=C/C(=O)O [Fumarate, methyl 2-((R)-(3-chlorophenyl)((R)-1-((S)-2-(methylamino)-3-((R)-tetrahydro-2H-pyran-3-yl)propylcarbamoyl)piperidin-3-yl)methoxy)ethylcarbamate fumaric acid salt] as the compound, how does the AUC(0-t) [1] read?
**A.** 477 ng·h/mL

**Q.** What about the DNAUC0-t [1] of the same compound?
**A.** 48 ng·h/mL

**Q.** And the Cmax ([1]; plasma)?
**A.** 156 ng/mL

**Q.** And the DNAUC0-t [2, 7]?
**A.** 458 ng·h/mL

**Q.** What about the AUC(0-t) [2, 7] of the same compound?
**A.** 458 ng·h/mL

**Q.** What about the Cmax [2, 7] of the same compound?
**A.** 286 ng/mL

**Q.** And the DNAUC0-t ([3]; 2 mg/kg (as salt))?
**A.** 191 ng·h/mL

**Q.** What about the AUC(0-t) ([3]; 2 mg/kg (as salt)) of the same compound?
**A.** 381 ng·h/mL

**Q.** And the Cmax ([3]; 2 mg/kg (as salt))?
**A.** 145 ng/mL
